“Also recorded” adds a separate entry of the source.
Tests used:
[1] = Oral absorption in dogs; format: in vivo
Experimental: The highest plasma concentrations generally occurred in 1-2 hours. […] The highest level of inhibition was ˜35% for 2C19 at a 30 μM concentration. […] Lastly, VGX-1027 is stable in human liver S9 fractions (with phase 1 and 2 cofactors) with t1/2>90 minutes, which indicates a low likelihood of metabolism in the liver.

[2] = tested on: Peritoneal macrophages (PM); test: Ex vivo cytokine synthesis by PM from treated mice; format: cell-based
Experimental: These experiments were carried out to explore if intraperitoneal (i.p.) or oral administration (p.o.) in mice with VGX-1027 could influence the proliferative response of SMNC and the production of IL-1β, IL-10, TNF-α, IFN-γ and MIF from isolated PM and SMNC. PM and SMNC isolated from mice treated in vivo with VGX-1027 for 7 consecutive days intraperitoneally (0.5 mg/mouse), or orally (2.5 mg/mouse), or isolated from control animals that received VGX-1027 vehicle (Na2HPO4/H2O), or were without any treatment. 24 h after the last VGX-1027 treatment, PM and SMNC were collected for further in vitro stimulation and analysis.

[3] = tested on: DNBS-induced colitis; test: DNB/DNBS-induced colitis; format: in vivo, mice
Experimental: Mice were injected with DNBS into the rectum and administered VGX-1027 an hour later; 4 days after, the mice were sacrificed, and the colons were isolated and analyzed. Variation in total body weight (A), stool consistency (B), macroscopic score (C), necrotic areas 9D), colon weight (E), and amount of cytokines in colon homogenate were determined Macroscopic score was determined by the following criteria: 0=no damage; 1=localized hyperaemia and/or oedema; 2=linear ulcer<half of the width of the colon; 3=linear ulcer>half the width of the colon; 4=circular ulcer<1 cm; 5=circular ulcer between 1 and 2 cm; 6=circular ulcer>2 cm.
Within 5 days after challenge with dinitrobenzene sulfonic acid (DNB), mice develop colitis. The disease severity is evaluated based on a macroscopic score. The vehicle-treated control mice and untreated mice developed colitis with a predictable and progressive increase in inflammation and body weight loss.
The colons of the control mice and of the VGX-1027 treated mice were removed, sectioned, fixed, and stained with hematoxylin and eosin. […] The tissue myeloperoxidase activity is a well established marker to assess the inflammatory cell (mainly neutrophils) infiltration. […] We counted an average of 8.9±1.2 (means±SD) cells/high power field of DNB-induced animals, whereas there were only 3.37±0.8 cells/high-power field in DNB-induced animals pretreated with VGX-1027 (p<0.0001).
DNBS challenge of mice induced clinical features of colitis including weight loss, diarrhea, intestinal damage, and necrotic regions (FIG. 11a-d). […] An increase in the weight of the colon is an indirect measure of increased thickness of the walls due to inflammation.

[4] = tested on: In vitro-derived human DCs; test: LPS-induced cytokine production of dendritic cells; format: cell-based; conditions: LPS 5 μg/ml, 10 mM, 72 hours
Experimental: In vitro-derived human DCs were treated with LPS (5 μg/ml), with or without VGX-1027 (10 mM) for 72 hours. Concentrations of the cytokines in the media were measured via ELISA.

[5] = tested on: spontaneous diabetes; test: Spontaneous diabetes in NOD mice; format: in vivo; conditions: i.p. 20 mg/kg 6 times a week, week 12 to 25
Experimental: (A) Euglycaemic female 12 week old NOD mice were treated intraperitoneally with either 20 mg/kg bw VGX-1027 or its vehicle six times a week from the 12th until the 25th week of age. An additional control group of mice was left untreated. Each group consisted of 16 mice. The data are representative of two independent experiments that were merged because of interstudies variability lower than 10%. Statistical analysis was performed by Logrank (Mantel-Cox). (B) Plasma glucose levels in control CBA/H mice receiving STZ (40 mg/kg/day, for 5 consecutive days) in conjunction with 12 daily intreperitoneum injections of vehicle (STZ), or in mice treated with STZ and VGX-1027 given as a continuous 12-day treatment. 100 mg/kg bw of VGX-1027, administered orally from day −1 to day +10. Results from a representative experiment are presented as mean±SD for seven to eight mice per group. *p<0.05 refers to treatment with MLD-STZ.

[6] = tested on: systemic lupus erythematosus (SLE); test: NZB/NZW F1 model of systemic lupus erythematosus; format: in vivo, NZB/NZW F1 mice
Experimental: FIG. 19. Effects of VGX-1027 administration on survival rate (A), proteinuria (B) and serum anti-dsDNA antibodies (C) of NZB/NZW F1 mice treated for 20 weeks with either VGX-1027 or vehicle.
FIG. 20. Histopathological analysis (A) and relative phospho-STAT3 (B) levels in kidney sample of NZB/NZW F1 mice treated for 20 weeks with either VGX-1027 or vehicle.
To determine the effects of VGX-1027 on the development and progression of SLE, lupus-prone NZB/NZW F1 were treated daily with 5 mg/mouse VGX-1027 i.p. for 20 weeks, starting at 16 weeks of age. Control mice received an equal volume of vehicle. Control mice started to die at 20 weeks of age. By week 36, 62.5% of them were dead compared to the only 33.3% of treated mice (p=0.0487 by Log-rank test) (FIG. 19A). Improved survival was correlated with inhibition of renal disease. Proteinuria was assessed once a week. […] Eventually, all of the mice developed proteinuria but the delay in disease progression and prolonged survival of VGX-1027 treated animals remained evident (FIG. 19B).

[7] = DNBS, treatment from 1 hour after DNBS

O=C(O)CC1CC(c2ccccc2)=NO1 (stereo not shown) [VGX-1027, 3-phenyl-4,5-dihydro-5-isoxazoleacetic acid]
oral absorption [1]: rapidly absorbed | time of highest plasma concentrations [1]: 1 to 2 h | IL-10 synthesis ([2]; mice treated 7 days): impaired synthesis | TNF-α synthesis ([2]; mice treated 7 days): impaired synthesis | IL-1 β synthesis ([2]; mice treated 7 days i.p. 0.5 mg/mouse or orally 2.5 mg/mouse): impaired synthesis | MIF expression ([2]; mitogenic stimulation): normal pattern | increase in colon weight ([3]; DNB colitis): significantly lower | weight loss ([3]; DNB colitis): significant reduction | tissue damage (histology) ([3]; DNB colitis, treated before induction): significantly reduced | progression of inflammatory colitis ([3]; DNB, p<0.001): significantly attenuated | neutrophils infiltrating ([3]; DNB-induced animals pretreated, means±SD): 3.37±0.8 cells/high-power field | IL-18 in colon homogenates [3, 7]: decreased amounts | TNF-α in colon homogenates [3, 7]: decreased amounts | colon weight [3, 7]: decreased | features of colitis / degree of protection ([3]; DNBS, treatment from 1 hour after until 4 days after DNBS): markedly improved; also recorded: comparable to that afforded by 1 mg/kg of dexamethasone | inflammatory cell infiltration (myeloperoxidase activity) ([3]; colon tissue, 5 days after induction, p<0.0001): significant reduction | IL-6 production [4]: dramatically repressed | IL-18 production [4]: dramatically repressed | IL-23 production [4]: dramatically repressed | TNF-α production [4]: dramatically repressed | mice developing TID ([5]; by 25 weeks): 31.3% | tolerability of prolonged treatment [5]: well tolerated | serum anti-dsDNA autoantibodies ([6]; 36-weeks old, p<0.0001): significant lower levels | anti-dsDNA antibodies ([6]; at 26 weeks of age): Only slightly increased levels | mice dead ([6]; by week 36, 5 mg/mouse i.p. daily for 20 weeks): 33.3% | renal histopathology mean score ([6]; end-stage nephritis, p=0.01): 1.9±0.8 | relative levels of renal p-STAT3 (ELISA) ([6]; p=0.0234): significant reduction | levels of proteinuria ([6]; throughout the experimental period, p=0.0265): significantly lower

Source: US20150064221A1, “COMPOUNDS HAVING IMMUNOMUDULATOR ACTIVITY” (priority 2012, published 2015)
